Test results from patent US9242970B2 (ACTELION PHARMACEUTICALS LTD., priority 2010, dated 2016).
pIC50: −log10 of the molar value. Where two headings read alike, the source gives them in different places.

Columns and labels:
[1] = target: human orexin-1 receptor (Homo sapiens (Human), UniProt O43613); experiment: In vitro assay: intracellular calcium measurements (FLIPR), antagonistic activity; assay type: cell-based; conditions: CHO cells, 3 nM orexin-A, marked values are geometric means of n = 2-6, read-out: IC50 OX1
human orexin-1 receptor, sequence (O43613 whole entry): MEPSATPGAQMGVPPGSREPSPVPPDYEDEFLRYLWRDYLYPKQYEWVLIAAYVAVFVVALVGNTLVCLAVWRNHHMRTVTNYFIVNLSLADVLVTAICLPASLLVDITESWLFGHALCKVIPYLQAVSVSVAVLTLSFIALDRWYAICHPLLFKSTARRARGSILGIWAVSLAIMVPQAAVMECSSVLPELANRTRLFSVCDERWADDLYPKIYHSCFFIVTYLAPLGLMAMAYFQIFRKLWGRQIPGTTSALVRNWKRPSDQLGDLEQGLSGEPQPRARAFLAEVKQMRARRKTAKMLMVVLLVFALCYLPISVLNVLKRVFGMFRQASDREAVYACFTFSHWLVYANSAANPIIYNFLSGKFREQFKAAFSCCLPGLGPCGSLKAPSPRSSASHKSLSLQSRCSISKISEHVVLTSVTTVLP

[2] = target: human orexin-2 receptor (Homo sapiens (Human), UniProt O43614); experiment: as above; assay type: cell-based
human orexin-2 receptor, sequence (O43614 whole entry): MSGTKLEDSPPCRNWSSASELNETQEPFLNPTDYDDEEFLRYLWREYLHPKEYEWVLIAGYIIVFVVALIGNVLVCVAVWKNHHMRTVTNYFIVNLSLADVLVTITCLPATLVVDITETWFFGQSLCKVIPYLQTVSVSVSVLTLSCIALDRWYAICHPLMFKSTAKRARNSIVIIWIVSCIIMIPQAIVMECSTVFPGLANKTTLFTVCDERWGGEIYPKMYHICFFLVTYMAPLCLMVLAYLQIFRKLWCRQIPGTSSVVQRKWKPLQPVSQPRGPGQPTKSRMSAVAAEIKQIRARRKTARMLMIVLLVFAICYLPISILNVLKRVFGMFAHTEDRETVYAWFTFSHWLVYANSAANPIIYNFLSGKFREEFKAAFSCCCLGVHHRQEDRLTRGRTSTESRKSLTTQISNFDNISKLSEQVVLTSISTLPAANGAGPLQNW

[3] = compound incubation time of 10 min
[4] = CHO cells, 3 nM orexin-A, compound incubation time of 10 min, marked values are geometric means of n = 2-6, read-out: IC50 OX2
[5] = CHO cells, 3 nM orexin-A, compound incubation 120 min, marked values are geometric means of n = 2-6, read-out: IC50 OX2

| SMILES | pIC50 [1, 3] | pIC50 [2, 4] | pIC50 ([1]; compound incubation 120 min) | pIC50 [2, 5] | pIC50 [2] |
| --- | --- | --- | --- | --- | --- |
| COc1cccc(OC)c1C1CCCC(=O)N1Cc1ccc(OC(F)F)nc1 (centres unmarked) [Example 177, 1-((6-(difluoromethoxy)pyridin-3-yl)methyl)-6-(2,6-dimethoxyphenyl)piperidin-2-one] | 6.45 | 7.04 |  |  |  |
| COc1cccc(OC)c1C1CCCC(=O)N1Cc1cccc(-n2cncn2)c1 (centres unmarked) [Example 23, 1-(3-(1H-1,2,4-triazol-1-yl)benzyl)-6-(2,6-dimethoxyphenyl)piperidin-2-one] |  |  | 6.51 | 6.33 |  |
| COc1cccc(OC)c1C1CCCC(=O)N1Cc1cccc(-c2ccc(F)cc2)n1 (centres unmarked) [Example 6, 6-(2,6-dimethoxyphenyl)-1-((6-(4-fluorophenyl)pyridin-2-yl)methyl)piperidin-2-one] |  |  | 6.92 | 6.85 |  |
| COc1cccc(OC)c1C1CC(C)C(=O)N1Cc1ccc2sc(C)nc2c1 (centres unmarked) [Example 393, 5-(2,6-dimethoxyphenyl)-3-methyl-1-((2-methylbenzo[d]thiazol-5-yl)methyl)pyrrolidin-2-one] |  |  | 7.49 | 6.92 |  |
| COc1cccc(F)c1C1CC(C)C(=O)N1Cc1ccnc(-n2cccn2)c1 (centres unmarked) [Example 361, 1-((2-(1H-pyrazol-1-yl)pyridin-4-yl)methyl)-5-(2-fluoro-6-methoxyphenyl)-3-methylpyrrolidin-2-one] |  |  | 6.07 | 7.06 |  |
| COc1ccc2ccccc2c1[C@@H]1C[C@H](Cl)C(=O)N1Cc1ccc(OC(F)(F)F)cc1 (racemic) [Example 316, rac-(3S*,5S*)-3-chloro-5-(2-methoxynaphthalen-1-yl)-1-(4-(trifluoromethoxy)benzyl)pyrrolidin-2-one] |  |  | 6.48 | 5.98 |  |
| COc1cccc(OC)c1C1CCCC(=O)N1Cc1cccc(-c2nccs2)n1 (centres unmarked) [Example 39, 6-(2,6-dimethoxyphenyl)-1-((6-(thiazol-2-yl)pyridin-2-yl)methyl)piperidin-2-one] |  |  | 6.75 | 6.83 |  |
| CCOc1cccc(F)c1C1CC(C)C(=O)N1Cc1cccc(OC(F)F)c1 (centres unmarked) [Example 374, 1-(3-(difluoromethoxy)benzyl)-5-(2-ethoxy-6-fluorophenyl)-3-methylpyrrolidin-2-one] |  |  | 6.01 | 7.39 |  |
| COc1cccc(OC)c1C1CCCCC(=O)N1Cc1ccnc(-n2cccn2)c1 (centres unmarked) [Example 103, 1-((2-(1H-pyrazol-1-yl)pyridin-4-yl)methyl)-7-(2,6-dimethoxyphenyl)azepan-2-one] |  |  | 8.10 | 7.07 |  |
| CCOc1cc(F)ccc1[C@@H]1C[C@H](Cl)C(=O)N1Cc1ccc(OC(F)(F)F)cc1 (racemic) [Example 345] |  |  | 6.13 |  | 6.34 |
| O=C1CCCCC(c2ccccc2-c2ccccc2)N1Cc1cccc(-c2nccs2)c1 (centres unmarked) [Example 454, 7-([1,1′-biphenyl]-2-yl)-1-(3-(thiazol-2-yl)benzyl)azepan-2-one] |  |  | 6.74 | 7.11 |  |
| COc1cccc(OC)c1C1CCC(=O)N1Cc1cccc2ccccc12 (centres unmarked) [Example 116, 5-(2,6-dimethoxyphenyl)-1-(naphthalen-1-ylmethyl)pyrrolidin-2-one] |  |  | 6.10 | 6.54 |  |
| COc1cccc(OC)c1C1CCC(=O)N1Cc1ccc(F)cc1 (centres unmarked) [Example 197, 5-(2,6-dimethoxyphenyl)-1-(4-fluorobenzyl)pyrrolidin-2-one] | < 4.98 | 5.88 |  |  |  |
| COc1cccc(OC)c1[C@@H]1C[C@@H](O)C(=O)N1Cc1ccc2oc3ccccc3c2c1 (racemic) [Example 357, rac-(3R*,5S*)-1-(dibenzo[b,d]furan-2-ylmethyl)-5-(2,6-dimethoxyphenyl)-3-hydroxypyrrolidin-2-one] |  |  | 7.70 | 8.40 |  |
| COc1cccc(OC)c1C1CCCC(=O)N1Cc1ccc(Oc2ccccc2)cc1 (centres unmarked) [Example 164, 6-(2,6-dimethoxyphenyl)-1-(4-phenoxybenzyl)piperidin-2-one] | 6.39 | 7.57 |  |  |  |
| O=C1CCCC(c2c(F)cccc2Cl)N1Cc1ccc(OC(F)(F)F)cc1 (centres unmarked) [Example 229, 6-(2-chloro-6-fluorophenyl)-1-(4-(trifluoromethoxy)benzyl)piperidin-2-one] | 5.54 | 5.92 |  |  |  |
| COc1cccc(OC)c1C1CCCC(=O)N1Cc1cc(-c2ccccn2)ccc1Cl (centres unmarked) [Example 48, 1-(2-chloro-5-(pyridin-2-yl)benzyl)-6-(2,6-dimethoxyphenyl)piperidin-2-one] |  |  | 6.77 | 6.20 |  |
| COc1cccc(OC)c1C1CCCC(=O)N1Cc1ccnc(-n2cccn2)c1 (centres unmarked) [Example 52, 1-((2-(1H-pyrazol-1-yl)pyridin-4-yl)methyl)-6-(2,6-dimethoxyphenyl)piperidin-2-one] |  |  | 7.85 | 7.10 |  |
| CCOc1cc(F)cc(F)c1[C@@H]1C[C@@H](O)C(=O)N1Cc1ccc(OC(F)(F)F)cc1 (racemic) [Example 431, rac-(3R*,5S*)-5-(2-ethoxy-4,6-difluorophenyl)-3-hydroxy-1-(4-(trifluoromethoxy)benzyl)pyrrolidin-2-one] |  |  | 5.83 | 6.59 |  |

| SMILES | pIC50 [1, 3] | pIC50 [2, 4] | pIC50 ([1]; compound incubation 120 min) | pIC50 [2, 5] | pIC50 [2] |
| --- | --- | --- | --- | --- | --- |
| COc1cccc(F)c1C1CC(C)C(=O)N1Cc1cccc(-c2ncc(C)s2)c1 (centres unmarked) [Example 364, 5-(2-fluoro-6-methoxyphenyl)-3-methyl-1-(3-(5-methylthiazol-2-yl)benzyl)pyrrolidin-2-one] |  |  | 6.92 | 7.96 |  |
| COc1cccc(OC)c1C1CC(C)C(=O)N1Cc1cnc2ccccc2c1 (centres unmarked) [Example 347, 5-(2,6-dimethoxyphenyl)-3-methyl-1-(quinolin-3-ylmethyl)pyrrolidin-2-one] |  |  | 5.85 | 6.11 |  |
| CCOc1cccc(F)c1C1CC(C)C(=O)N1Cc1ccc2oc3ccccc3c2c1 (centres unmarked) [Example 382, 1-(dibenzo[b,d]furan-2-ylmethyl)-5-(2-ethoxy-6-fluorophenyl)-3-methylpyrrolidin-2-one] |  |  | 7.06 | 8.70 |  |
| COc1cccc(OC)c1C1CC(C)C(=O)N1Cc1ccc(OCC(F)F)cc1 (centres unmarked) [Example 420, 1-(4-(2,2-difluoroethoxy)benzyl)-5-(2,6-dimethoxyphenyl)-3-methylpyrrolidin-2-one] |  |  | 6.23 | 6.26 |  |
| CCOc1cccc(OC)c1C1CC(F)(F)C(=O)N1Cc1cccc(-c2ccccc2)c1 (centres unmarked) [Example 337, 1-([1,1′-biphenyl]-3-ylmethyl)-5-(2-ethoxy-6-methoxyphenyl)-3,3-difluoropyrrolidin-2-one] |  |  | 7.92 | 7.20 |  |
| COc1cccc(OC)c1C1CCCCC(=O)N1Cc1cccc(-c2ccccn2)c1 (centres unmarked) [Example 84, 7-(2,6-dimethoxyphenyl)-1-(3-(pyridin-2-yl)benzyl)azepan-2-one] |  |  | 8.52 | 8.15 |  |
| COc1cccc(OC)c1C1CCCC(=O)N1C(C)c1cnc(OC(F)F)c(Cl)c1 (centres unmarked) [Example 185, 1-(1-(5-chloro-6-(difluoromethoxy)pyridin-3-yl)ethyl)-6-(2,6-dimethoxyphenyl)piperidin-2-one] | 6.49 | 7.47 |  |  |  |
| COc1cccc(OC)c1C1CCCC(=O)N1Cc1ccc2sc(C)nc2c1 (centres unmarked) [Example 2, 6-(2,6-dimethoxyphenyl)-1-((2-methylbenzo[d]thiazol-5-yl)methyl)piperidin-2-one] |  |  | 7.59 | 7.89 |  |
| COc1cccc(OC)c1C1CCC(=O)N1Cc1cccc(Oc2ccccc2)c1 (centres unmarked) [Example 117, 5-(2,6-dimethoxyphenyl)-1-(3-phenoxybenzyl)pyrrolidin-2-one] |  |  | 6.68 | 7.19 |  |
| COc1cccc(OC)c1C1CCCC(=O)N1Cc1cccc(-c2ccccn2)n1 (centres unmarked) [Example 38, 1-([2,2′-bipyridin]-6-ylmethyl)-6-(2,6-dimethoxyphenyl)piperidin-2-one] |  |  | 6.82 | 7.06 |  |
| COc1cccc(OC)c1C1CCCC(=O)N1Cc1cccc(N2CCCCC2)n1 (centres unmarked) [Example 28, 6-(2,6-dimethoxyphenyl)-1-((6-(piperidin-1-yl)pyridin-2-yl)methyl)piperidin-2-one] |  |  | 7.68 | 7.96 |  |
| COc1cccc(OC)c1C1CCC(=O)N1Cc1cnc(OC(F)F)c(Cl)c1 (centres unmarked) [Example 112, 1-((5-chloro-6-(difluoromethoxy)pyridin-3-yl)methyl)-5-(2,6-dimethoxyphenyl)pyrrolidin-2-one] | 6.19 | 6.97 |  |  |  |
| COc1cccc(OC)c1C1CCCCC(=O)N1Cc1cccc(-c2cccnc2)c1 (centres unmarked) [Example 87, 7-(2,6-dimethoxyphenyl)-1-(3-(pyridin-3-yl)benzyl)azepan-2-one] |  |  | 7.68 | 7.34 |  |
| COc1ccc(CN2C(=O)C(C)CC2c2c(OC)cccc2OC)cc1OC(F)(F)F (centres unmarked) [Example 404, 5-(2,6-dimethoxyphenyl)-1-(4-methoxy-3-(trifluoromethoxy)benzyl)-3-methylpyrrolidin-2-one] |  |  | 6.02 | 6.29 |  |
| COc1ccc2ccccc2c1C1CCCC(=O)N1Cc1cccc(-c2ncc(C)s2)c1 (centres unmarked) [Example 446, 6-(2-methoxynaphthalen-1-yl)-1-(3-(5-methylthiazol-2-yl)benzyl)piperidin-2-one] |  |  | 7.92 | 7.23 |  |
| COc1ccc2nc(C)oc2c1C1CCCC(=O)N1Cc1cccc(-c2csc(C)n2)c1 (centres unmarked) [Example 441, 6-(6-methoxy-2-methylbenzo[d]oxazol-7-yl)-1-(3-(2-methylthiazol-4-yl)benzyl)piperidin-2-one] |  |  | 7.80 | 7.21 |  |
| COc1cccc(OC)c1C1CC(C)C(=O)N1Cc1cccc(N2CCCC2)c1 (centres unmarked) [Example 123, 5-(2,6-dimethoxyphenyl)-3-methyl-1-(3-(pyrrolidin-1-yl)benzyl)pyrrolidin-2-one] |  |  | 7.89 | 7.13 |  |
| CCOc1cc(F)cc(F)c1[C@@H]1C[C@H](F)C(=O)N1Cc1ccc(OC(F)(F)F)cc1 (racemic) [Example 438, rac-(3S*,5S*)-5-(2-ethoxy-4,6-difluorophenyl)-3-fluoro-1-(4-(trifluoromethoxy)benzyl)pyrrolidin-2-one] |  |  | 6.04 | 7.43 |  |
